The source of these data is paper PMC10788528 (The Journal of Biological Chemistry, 2023).

Broadly, the IC50 is the midpoint of a concentration-inhibition curve. The term EC50 denotes the concentration needed to bring the measured effect to its halfway point. Lower therefore signals greater potency.

For data set [1], the target named is T1, Sm.TRPMMCLZ (Schistosoma mansoni, UniProt A0A5K4FCC0).
T1 sequence (A0A5K4FCC0 1-1380): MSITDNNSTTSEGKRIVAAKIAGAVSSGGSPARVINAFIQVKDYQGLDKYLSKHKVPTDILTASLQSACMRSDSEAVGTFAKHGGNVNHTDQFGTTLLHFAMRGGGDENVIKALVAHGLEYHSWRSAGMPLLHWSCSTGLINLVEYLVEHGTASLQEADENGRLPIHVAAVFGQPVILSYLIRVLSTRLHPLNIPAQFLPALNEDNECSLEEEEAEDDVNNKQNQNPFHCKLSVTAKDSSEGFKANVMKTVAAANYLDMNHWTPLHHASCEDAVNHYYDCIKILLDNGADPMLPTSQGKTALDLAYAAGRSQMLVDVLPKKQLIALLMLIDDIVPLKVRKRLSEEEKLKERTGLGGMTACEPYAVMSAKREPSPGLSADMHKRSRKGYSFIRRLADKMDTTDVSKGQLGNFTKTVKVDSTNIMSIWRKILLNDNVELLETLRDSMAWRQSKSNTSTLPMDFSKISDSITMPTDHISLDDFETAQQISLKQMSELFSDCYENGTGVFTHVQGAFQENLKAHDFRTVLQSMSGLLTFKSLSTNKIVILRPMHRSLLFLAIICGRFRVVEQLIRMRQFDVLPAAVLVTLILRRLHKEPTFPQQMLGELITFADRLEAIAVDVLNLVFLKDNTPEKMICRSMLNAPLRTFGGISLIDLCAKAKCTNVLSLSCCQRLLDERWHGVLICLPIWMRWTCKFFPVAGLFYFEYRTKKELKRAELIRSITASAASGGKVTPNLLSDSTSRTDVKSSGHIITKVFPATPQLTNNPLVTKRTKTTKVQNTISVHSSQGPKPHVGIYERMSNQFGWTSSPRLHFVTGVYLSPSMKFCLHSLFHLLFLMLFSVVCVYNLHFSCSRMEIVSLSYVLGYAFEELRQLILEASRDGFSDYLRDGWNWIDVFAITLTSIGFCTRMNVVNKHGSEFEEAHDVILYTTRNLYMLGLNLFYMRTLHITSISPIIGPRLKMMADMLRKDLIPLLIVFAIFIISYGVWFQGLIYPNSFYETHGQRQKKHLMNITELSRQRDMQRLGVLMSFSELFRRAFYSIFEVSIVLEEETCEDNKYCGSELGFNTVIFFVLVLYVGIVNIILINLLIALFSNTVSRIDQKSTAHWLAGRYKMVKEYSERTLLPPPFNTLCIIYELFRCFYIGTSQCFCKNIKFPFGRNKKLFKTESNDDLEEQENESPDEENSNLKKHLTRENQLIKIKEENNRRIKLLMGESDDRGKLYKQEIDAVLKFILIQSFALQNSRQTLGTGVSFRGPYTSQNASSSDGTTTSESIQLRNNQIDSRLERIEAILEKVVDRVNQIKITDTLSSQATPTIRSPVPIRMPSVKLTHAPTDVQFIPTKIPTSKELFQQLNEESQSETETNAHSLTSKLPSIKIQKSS
Briefly: Ca2+ reporter assay. To be noted: for Activator screen at Sm.TRPMMCLZ: 10 μM; for Antagonism of (S)-MCLZ (1 μM) action at Sm.TRPMMCLZ: 100 μM, preincubation 5 min. It counts as cell-based.

Data set [2] concerns juvenile worms. As to conditions: ref 7 (PZQ); 12 ((S)-MCLZ); cited from earlier work.
The subject of data set [3] is S. mansoni and S. haematobium infections. As to conditions: at clinical dosing; cited from earlier work.
Data set [4] has as its system adult S. mansoni worms. Put plainly: Adult schistosome movement. It counts as cell-based, Schistosoma mansoni.
Data set [5] has as its system S. mansoni male worms. Briefly: Acute contraction of S. mansoni male worms by benzodiazepines. It counts as cell-based, Schistosoma mansoni. To be noted: 3 μM, 20 min.
Data set [6] concerns the target Sm.TRPMPZQ (Schistosoma mansoni, UniProt A0A5K4F0X5). Put plainly: Ca2+ reporter assay. It counts as cell-based. To be noted: Fig. S2 concentration-response.

Structures are written as SMILES. “Also recorded” adds a separate entry of the source.

With `O=C(C1CCCCC1)N1CC(=O)N2CCc3ccccc3C2C1` (racemic) [(±)-PZQ, praziquantel], the “Agonist activity at Sm.TRPMMCLZ (concentration-response)” value in data set [1] (HEK293 cells, cytoplasmic Ca2+) was “did not activate”. Moreover, the “Antagonism of (S)-MCLZ activation of Sm.TRPMMCLZ” value in data set [1] (competition versus (S)-MCLZ (1 μM)) was “failed to inhibit”. Also, in data set [2], the “Efficacy against juvenile / immature worms” value is given as “poorly effective against immature worms”. Moreover, the Cure rates in data set [3] is 60–90%.

As for `NCCc1c[nH]c2ccc(O)cc12` [5-hydroxytryptamine], the “Activator screen at Sm.TRPMMCLZ” value in data set [1] was “inactive”.

As to `O=C(C1CCCCC1)N1CC(=O)N2CCc3ccccc3[C@@H]2C1` [(R)-PZQ, praziquantel], the “Effect on worm movement (paralysis)” value in data set [4] (1 μM, adult S. mansoni worms, images 1 min after addition) is recorded as “rapid, spastic paralysis”. Besides, the IC50 in data set [4] (Schistosoma mansoni, read-out: Inhibition of motility, IC50) stood at 250 ± 70 nM. In data set [1] (Activation of Sm.TRPMMCLZ, EC50, HEK293 cells, cytoplasmic Ca2+ (Fluo-4)), `O=C1CN=C(c2ccccc2Cl)c2cc([N+](=O)[O-])ccc2N1` [Clonazepam] had an EC50 of 2100 ± 200 nM. Moreover, in data set [5], the “Acute contraction / paralysis of S. mansoni male worms” value (shortened to “Acute contraction / paralysis”) is “caused acute worm paralysis”. Consider `O=C(O)CN(CCOCCOCCN(CC(=O)O)CC(=O)O)CC(=O)O` [EGTA], for which the “Effect of chelation of extracellular Ca2+ on the (S)-MCLZ-evoked Ca2+ signal” value in data set [1] (EGTA 1 mM in Ca2+-free HBSS, (S)-MCLZ 100 μM) is “abolished”.

`COC(=O)c1c(C)[nH]c(C)c1C(=O)c1ccccc1Cc1ccccc1` [FPL-64176]: the “Activator screen at Sm.TRPMMCLZ” value in data set [1] is recorded as “activated”. The “Activation of Sm.TRPMPZQ by Cav channel ligands” value in data set [6] is listed as “but not Sm.TRPMPZQ”. `NCCCC(=O)O` [GABA]: the “Activator screen at Sm.TRPMMCLZ” value in data set [1] was “inactive”. As to `[Cl-].[Cl-].[Mg+2]` [Mg^2+, MgCl2], the “Inhibition of Ca2+ permeability through TRPMMCLZ by metal salt” value in data set [1] ((S)-MCLZ 1 μM, weakest in rank order La3+ > Ba2+ > Mg2+) is “partial inhibition”.

`C=CCN=C=S` [allyl isothiocyanate]: the “Activator screen at Sm.TRPMMCLZ” value in data set [1] was “inactive”. As for `COc1cc(CNC(=O)CCCC/C=C/C(C)C)ccc1O` [capsaicin], the “Activator screen at Sm.TRPMMCLZ” value in data set [1] was “inactive”. Take `C[N+](C)(C)CCOC(N)=O` [carbachol]: in data set [1], the “Activator screen at Sm.TRPMMCLZ” value is “inactive”. As for `CN1C(=O)CN=C(c2ccccc2)c2cc(Cl)ccc21` [diazepam], the “Acute contraction / paralysis” value in data set [5] is “did not evoke worm contraction”.

In the case of `NCCc1ccc(O)c(O)c1` [dopamine], the “Activator screen at Sm.TRPMMCLZ” value in data set [1] was “inactive”. As to `CCOC(=O)c1ncn2c1CN(C)C(=O)c1cc(F)ccc1-2` [flumazenil], in data set [1], the “Antagonism of (S)-MCLZ (1 μM) action at Sm.TRPMMCLZ” value (shortened to “Antagonism … at Sm.TRPMMCLZ”) was “weakly antagonized”. In the case of `CN1C(=O)CN=C(c2ccccc2F)c2cc([N+](=O)[O-])ccc21` [flunitrazepam], in data set [5], the “Acute contraction / paralysis” value is listed as “did not evoke worm contraction”.

With `CCN(CC)CCN1C(=O)CN=C(c2ccccc2F)c2cc(Cl)ccc21` [flurazepam], the “Acute contraction / paralysis” value in data set [5] is listed as “did not evoke worm contraction”. Take `O=C1NC(c2cccc([N+](=O)[O-])c2)=CCN1c1ccccc1O` [icilin]: in data set [1], the “Activator screen at Sm.TRPMMCLZ” value is “inactive”. With `CC1CCC(C(C)C)C(O)C1` (centres unmarked) [menthol], in data set [1], the “Activator screen at Sm.TRPMMCLZ” value was “inactive”. Consider `COc1ccc(CCN(C)CCCC(C#N)(c2cc(OC)c(OC)c(OC)c2)C(C)C)cc1OC` (centres unmarked) [methoxyverapamil], for which, in data set [1], the “Antagonism … at Sm.TRPMMCLZ” value is given as “weakly antagonized”. Consider `COC(=O)C1=C(C)NC(C)=C(C(=O)OCCN(C)Cc2ccccc2)C1c1cccc([N+](=O)[O-])c1` (centres unmarked) [nicardipine], for which, in data set [1], the “Antagonism … at Sm.TRPMMCLZ” value is “weakly antagonized; also recorded: weakly attenuated”. On the same count and under the same terms, for `COC(=O)C1=C(C)NC(C)=C(C(=O)OC)C1c1ccccc1[N+](=O)[O-]` [nifedipine] the value was “weakly antagonized; also recorded: weakly attenuated”. Turning to `COCCOC(=O)C1=C(C)NC(C)=C(C(=O)OC(C)C)C1c1cccc([N+](=O)[O-])c1` (centres unmarked) [nimodipine], the “Activator screen at Sm.TRPMMCLZ” value in data set [1] is on record as “activated”. Moreover, the “Activation of Sm.TRPMPZQ by Cav channel ligands” value in data set [6] is given as “but not Sm.TRPMPZQ”.
